Assay [1] has as its target T1, ENPP-1 (Homo sapiens, UniProt P22413).
T1 construct: purchased Biovendor RD172124100
T1 sequence (P22413 1-925): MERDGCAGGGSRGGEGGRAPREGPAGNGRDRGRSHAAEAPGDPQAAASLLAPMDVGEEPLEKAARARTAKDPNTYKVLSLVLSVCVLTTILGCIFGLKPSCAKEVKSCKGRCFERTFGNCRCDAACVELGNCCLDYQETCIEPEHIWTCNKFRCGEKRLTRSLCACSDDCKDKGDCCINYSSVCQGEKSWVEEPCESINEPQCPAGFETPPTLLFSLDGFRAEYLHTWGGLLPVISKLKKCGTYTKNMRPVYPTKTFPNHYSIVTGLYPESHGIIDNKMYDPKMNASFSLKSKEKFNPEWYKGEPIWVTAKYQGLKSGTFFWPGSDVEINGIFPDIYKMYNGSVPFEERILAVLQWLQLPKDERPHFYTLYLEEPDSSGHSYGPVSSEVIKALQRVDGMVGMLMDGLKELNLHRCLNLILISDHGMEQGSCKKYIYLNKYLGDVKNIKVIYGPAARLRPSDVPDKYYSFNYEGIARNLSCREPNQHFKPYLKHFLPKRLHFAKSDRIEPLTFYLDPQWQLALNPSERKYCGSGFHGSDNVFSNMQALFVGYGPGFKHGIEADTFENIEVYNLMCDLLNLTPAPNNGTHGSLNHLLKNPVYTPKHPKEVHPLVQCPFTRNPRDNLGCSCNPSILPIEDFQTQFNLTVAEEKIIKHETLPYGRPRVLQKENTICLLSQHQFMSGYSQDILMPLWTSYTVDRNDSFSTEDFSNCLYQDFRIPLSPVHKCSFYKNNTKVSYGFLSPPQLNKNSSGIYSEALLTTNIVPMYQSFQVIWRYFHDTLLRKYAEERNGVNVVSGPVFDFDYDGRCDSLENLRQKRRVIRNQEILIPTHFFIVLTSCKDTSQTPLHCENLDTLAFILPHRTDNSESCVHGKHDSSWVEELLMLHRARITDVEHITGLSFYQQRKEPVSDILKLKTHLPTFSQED
As to the kind of experiment: ENPP-1 enzyme assay with pNP-TMP substrate. Conditions: 12.5 ng ENPP-1, 720 μM substrate pNP-TMP, pH 9.0, 37° C., 60 minutes, absorbance 405 nm; average IC50. The format is biochemical. The protocol:
In order to measure the ENPP-1 inhibitory activity of the compounds according to the present disclosure, the following tests were performed.
ENPP-1 hydrolyzes a variety of substrates, including phosphodiester bonds of nucleotides and nucleotide sugars and pyrophosphate bonds of nucleotides and nucleotide sugars. p-Nitrophenyl 5′-thymidine monophosphate (p-Nph-5′-TMP) is an artificial substrate for 5′-adenosine monophosphate (AMP), which is hydrolyzed by the human recombinant ENPP-1 enzyme. In the above reaction, ENPP-1 enzymatic activity is monitored through the formation of yellow p-nitrophenolate, which absorbs at 405 nm.
First, the reaction mixture contains 100 mM Tris-HCl (pH 9.0), 150 mM NaCl, […], and 1% DMSO. Serially diluted ENPP-1 inhibitors (test compound concentrations ranging from 10 μM to 0.5 nM) are reacted with 12.5 ng of ENPP-1 (Biovendor, catalog number RD172124100) and 720 μM substrate pNP-TMP at 37° C. for 60 minutes. All assays include a DMSO control without ENPP-1 inhibitor that gives maximum absorbance.
After 60 minutes of this reaction, the […] is measured using an Epoch™ Microplate Spectrophotometer (BioTek Instruments Inc.). Inhibition (%) is calculated using the following formula: Sample OD405 nm/Max OD405 nm×100%. % residual ENPP-1 enzyme activity versus IC50 values for ENPP-1 inhibitor concentrations were determined by fitting inhibition curves using the 4-parameter method of GraphPad Prism® software [GraphPad version 9.3.1 for Windows, GraphPad Software, La Jolla California USA, www.graphpad.com].

The target of assay [2] is T1, ENPP-1. As to the kind of experiment: ENPP-1 enzyme assay with cGAMP substrate. The format is biochemical. Conditions: 200 pM ENPP-1, 10 μM substrate 2′3′-cGAMP, pH 7.4, 37° C., 30 minutes, Transcreener AMP2/GMP2 kit; average IC50. The protocol: 2′3′-cGAMP is a natural substrate specifically hydrolyzed by ENPP-1, and produces 5′-adenosine monophosphate (AMP) and 5′-guanosine monophosphate (GMP). AMP and GMP produced from the reaction are monitored for ENPP-1 enzyme activity through an AMP^2/GMP^2 ENPP-1 Assay kit (Bellbrook Labs, catalog number 3015).
First, the reaction mixture contains 25 mM Tris-HCl (pH 7.4), 5 mM MgCl2, 0.01% Brij-35, and 1% DMSO. Serially diluted ENPP-1 inhibitors (test compound concentrations ranging from 10 μM to 0.5 nM) are reacted with 200 pM ENPP-1 (Biovendor, catalog number RD172124100) and 10 μM substrate 2′3′-cGAMP at 37° C. for 30 minutes. All assays include a DMSO control without ENPP-1 inhibitor that provides maximal AMP and GMP production. After 30 minutes of this reaction, AMP and GMP production is detected as a measure of ENPP-1 enzymatic activity using the Transcreener® AMP^2/GMP^2 ENPP-1 Assay kit. The detection reagent is a reagent containing 16 nM AMP^2/GMP^2 Antibody-Tb, 25 mM Tris-HCl and 60.1 nM AMP/GMP HiLyte647 Tracer, which is added by 5 μl, mixed well, and incubated at 25° C. for 2 hours.
The […] signal is measured using a SPARK Cyto plate reader (Tecan). Inhibition (%) is calculated using the following formula: (Max 615:665 ratio-615:665 ratio)/Max 615:665 ratio×100%. % residual ENPP-1 enzyme activity versus IC50 values for ENPP-1 inhibitor concentrations were determined by fitting inhibition curves using the 4-parameter method of GraphPad Prism® software [GraphPad version 9.3.1 for Windows, GraphPad Software, La Jolla California USA, www.graphpad.com].

pIC50: −log10 of the molar value.

`COc1ccc2c(c1)c1ncccc1n2Cc1ccc(S(C)(=N)=O)cc1` (single isomer, unassigned) [Compound 10a, imino (4-((8-methoxy-5H-pyrido[3,2-b]indol-5-yl)methyl)phenyl)(methyl)-l6-sulfanone]: the pIC50 against ENPP-1 [1] and against ENPP-1 [2] was greater than 6.00 each time. With `COc1ccc2c(c1)c1ncccc1n2Cc1ccc(S(C)(=N)=O)cc1` (single isomer, unassigned) [Compound 10b, imino (4-((8-methoxy-5H-pyrido[3,2-b]indol-5-yl)methyl)phenyl)(methyl)-l6-sulfanone], the pIC50 at ENPP-1 [1] is greater than 6.00. Take `COc1cc2c3ncccc3n(Cc3ccc(S(C)(=N)=O)cc3)c2cc1F` (single isomer, unassigned) [Compound 30a, (4-((7-fluoro-8-methoxy-5H-pyrido[3,2-b]indol-5-yl)methyl)phenyl)(imino)(methyl)-l6-sulfanone]: the pIC50 against ENPP-1 [1] and on ENPP-1 [2] was greater than 6.00 each time.

`COc1cc2c3ncccc3n(Cc3ccc(S(C)(=N)=O)cc3)c2cc1F` (single isomer, unassigned) [Compound 30b, (4-((7-fluoro-8-methoxy-5H-pyrido[3,2-b]indol-5-yl)methyl)phenyl)(imino)(methyl)-l6-sulfanone] had a pIC50 on ENPP-1 [1] greater than 6.00.

Take `COc1cc2c3ncccc3n(Cc3ccc(S(=N)(=O)C4CC4)cc3)c2cc1F` (single isomer, unassigned) [Compound 56a, cyclopropyl (4-((7-fluoro-8-methoxy-5H-pyrido[3,2-b]indol-5-yl)methyl)phenyl) (imino)-l6-sulfanone]: the pIC50 against ENPP-1 [1] is greater than 6.00.

`COc1cc2c3ncccc3n(Cc3ccc(S(=N)(=O)C4CC4)cc3)c2cc1F` (single isomer, unassigned) [Compound 56b, cyclopropyl (4-((7-fluoro-8-methoxy-5H-pyrido[3,2-b]indol-5-yl)methyl)phenyl) (imino)-l6-sulfanone] showed a pIC50 on ENPP-1 [2] greater than 6.00. Consider `CS(=N)(=O)c1ccc(Cn2c3ccccc3c3ccncc32)cc1` (stereo not shown) [Compound 1, (4-((9H-pyrido[3,4-b]indol-9-yl)methyl)phenyl)(imino)(methyl)-l6-sulfanone], for which the results for the pIC50 at ENPP-1 [1] and on ENPP-1 [2] were greater than 6.00 and 5.00 to 6.00, respectively. For `COc1ccc2c(c1)c1ccncc1n2Cc1ccc(S(N)(=O)=O)cc1` [Compound 2, 4-((6-methoxy-9H-pyrido[3,4-b]indol-9-yl)methyl)benzenesulfonamide], in that order: greater than 6.00 and greater than 6.00. On to `COc1ccc2c(c1)c1ccncc1n2Cc1ccc(S(C)(=N)=O)cc1` (stereo not shown) [Compound 3, imino (4-((6-methoxy-9H-pyrido[3,4-b]indol-9-yl)methyl)phenyl)(methyl)-l6-sulfanone], for which the pIC50 at ENPP-1 [1] and on ENPP-1 [2] was greater than 6.00 throughout.

`COc1ccc2c(c1)c1cnccc1n2Cc1ccc(S(N)(=O)=O)cc1` [Compound 4, 4-((8-methoxy-5H-pyrido[4,3-b]indol-5-yl)methyl)benzenesulfonamide]: the pIC50 against ENPP-1 [1] and on ENPP-1 [2] was greater than 6.00 throughout. For the molecule `COc1ccc2c(c1)c1ncccc1n2Cc1ccc(S(N)(=O)=O)cc1` [Compound 5, 4-((8-methoxy-5H-pyrido[3,2-b]indol-5-yl)methyl)benzenesulfonamide], the pIC50 at ENPP-1 [1] and on ENPP-1 [2] was greater than 6.00 each time.

Take `COc1ccc2c(c1)c1ncccc1n2CC1CCN(S(N)(=O)=O)CC1` [Compound 6, 4-((8-methoxy-5H-pyrido[3,2-b]indol-5-yl)methyl) piperidine-1-sulfonamide]: the pIC50 at ENPP-1 [1] and against ENPP-1 [2] was greater than 6.00 in each case. In the case of `CNS(=O)(=O)c1ccc(Cn2c3ccc(OC)cc3c3ncccc32)cc1` [Compound 7, 4-((8-methoxy-5H-pyrido[3,2-b]indol-5-yl)methyl)-N-methylbenzenesulfonamide], the pIC50 was 5.00 to 6.00 against ENPP-1 [1] and less than 5.00 on ENPP-1 [2]. For `COc1ccc2c(c1)c1ncccc1n2Cc1ccc(NS(N)(=O)=O)cc1` [Compound 8, N-(4-((8-methoxy-5H-pyrido[3,2-b]indol-5-yl)methyl)phenyl) sulfamide], in that order: greater than 6.00 and greater than 6.00. For `COc1ccc2c(c1)c1ncccc1n2CCc1ccc(S(N)(=O)=O)cc1` [Compound 9, 4-(2-(8-methoxy-5H-pyrido[3,2-b]indol-5-yl)ethyl)benzenesulfonamide] the same measures were greater than 6.00 and less than 5.00. For `CCS(=N)(=O)c1ccc(Cn2c3ccc(OC)cc3c3ncccc32)cc1` (stereo not shown) [Compound 11, ethyl (imino) (4-((8-methoxy-5H-pyrido[3,2-b]indol-5-yl)methyl)phenyl)-l6-sulfanone], in that order: greater than 6.00 and greater than 6.00. In turn, `COc1ccc2c(c1)c1c(n2Cc2ccc(S(N)(=O)=O)cc2)CNC(C)C1` (stereo not shown) [Compound 33, 4-((6-methoxy-3-methyl-1,2,3,4-tetrahydro-9H-pyrido[3,4-b]indol-9-yl)methyl)benzene sulfonamide] gave a pIC50 on ENPP-1 [1] of less than 5.00. The same measure, in the same setting: the result for `COc1ccc2c(c1)c1c(n2Cc2cccc(S(N)(=O)=O)c2)CCCN1` [Compound 39, 3-((8-methoxy-1,2,3,4-tetrahydro-5H-pyrido[3,2-b]indol-5-yl)methyl)benzenesulfonamide] reads less than 5.00. Still for that read-out and setting: the value for `Cc1ccc2c(c1)c1c(n2Cc2ccc(S(N)(=O)=O)cc2)CCCN1` [Compound 40, 4-((8-methyl-1,2,3,4-tetrahydro-5H-pyrido[3,2-b]indol-5-yl)methyl)benzenesulfonamide] was 5.00 to 6.00. Still for that read-out and setting: the result for `COc1ccc2c(c1)c1cnncc1n2Cc1ccc(S(N)(=O)=O)cc1` [Compound 50, 4-((8-methoxy-5H-pyridazino[4,5-b]indol-5-yl)methyl)benzenesulfonamide] reads 5.00 to 6.00. For the molecule `COc1ccc2c(c1F)c1ncccc1n2Cc1ccc(S(N)(=O)=O)cc1` [Compound 54, 4-((9-fluoro-8-methoxy-5H-pyrido[3,2-b]indol-5-yl)methyl)benzenesulfonamide], at ENPP-1 [2], the pIC50 is greater than 6.00. In the case of `COc1ccc2c(c1)c1ncccc1n2Cc1ccc(S(C)(=N)=O)cc1C(F)(F)F` (stereo not shown) [Compound 55, imino (4-((8-methoxy-5H-pyrido[3,2-b]indol-5-yl)methyl)-3-(trifluoromethyl)phenyl)(methyl)-l6-sulfanone], the pIC50 against ENPP-1 [1] was less than 5.00.

In general, pIC50 refers to the negative decadic logarithm of the IC50, by convention in mol/L. Lower therefore signals a large IC50.

These data come from US20250367173A1, “ECTONUCLEOTIDE PYROPHOSPHATASE-PHOSPHODIESTERASE-1 INHIBITORS AND PHARMACEUTICAL COMPOSITIONS COMPRISING THE SAME” (LigaChem Biosciences Inc., priority 2022, published 2025).
